Data taken from patent US8658620B2, “Pharmaceutical composition, use of 2-iminopyrrolidine derivative for production of pharmaceutical composition, and kit for treatment or amelioration of heart diseases” (Eisai R&D Management Co., Ltd., priority 2008, dated 2014).
Structures can show the parent of a compound that is named as a salt.

Tested on: guinea pig photosensitization-induced thrombus model
Assay: guinea pig photosensitization-induced thrombus model (rose bengal / green light, femoral artery blood flow time)
Assay type: in vivo
Conditions: male Hartley guinea pigs, oral, about 115-120 min after administration, vehicle control 6.72 minutes
Method: At least one compound selected from the group consisting of the formulas (I) to (VII) or a pharmacologically acceptable salt thereof and at least one other compound (B) selected from group B are administered orally, single or in mixture, to male Hartley guinea pigs. As a vehicle, 0.5% methylcellulose solution or an aqueous solution containing dimethylsulfoxide and Tween 20 is used. (These compounds may be administered repeatedly.)
At a specific time after the oral administration, guinea pigs are anesthetized by intraperitoneal administration of sodium pentobarbital. Under anesthesia, the cervical vein is exposed and a polyethylene tube is cannulated thereinto for administering rose bengal. The femoral artery is exposed and fitted with a probe for blood flow measurement. A site upstream of the probe is irradiated with green light (wavelength 540 nm, 500,000 lux). […] Time to complete cessation of blood flow is measured.
A hydrobromide of a compound represented by the formula (I) (hereinafter, referred to as “the compound of Example 1”) and aspirin were dissolved with DMSO to give concentrations of 200 mg/mL and 1000 mg/mL, respectively. […] Blood flow time from the beginning of rose bengal administration to the complete cessation of blood flow was measured to evaluate antithrombotic effects.

Compound	blood flow time from the beginning of rose bengal administration to the complete cessation of blood flow (aspirin alone 100 mg/kg) [min]	blood flow time from the beginning of rose bengal administration to the complete cessation of blood flow (compound of Example 1 alone 30 mg/kg) [min]
CC(=O)Oc1ccccc1C(=O)O [aspirin]	11.30	
CCOc1cc2c(c(F)c1OCC)C(=N)N(CC(=O)c1cc(N3CCOCC3)c(OC)c(C(C)(C)C)c1)C2 [Example 1, 1-(3-tert-Butyl-4-methoxy-5-morpholino-phenyl)-2-(5,6-diethoxy-7-fluoro-1-imino-1,3-dihydro-isoindol-2-yl)-ethanone; hydrobromide]		10.77
